The results in this text go back to patent publication US8227433B2, “Use of inhibitors and antisense oligonucleotides of BTK for treating proliferative mastocytosis” (Centre National de la Recherche Scientifique (CNRS), priority 2003, dated 2012).

One data set relates to BTK. The data set can be described thus: BTK expression in HMC-1 clones that integrated the retrovirus vector coding for the BTK antisense RNA. The data set is classed as cell-based, human. The note with it: HMC-1 target cells which integrated the vector; 4 clones; FIG. 3. From the text:
2.1 We used antisense RNA to inhibit the expression of BTK in HMC-1, which is resistant to apoptosis. In this regard, we have constructed a retrovirus vector coding for an antisense RNA containing 32 nucleotides directed to the sequence comprised in the AUG region of the BTK gene (SEQ ID No 1).
Target cells, which integrated this vector, show a significant decrease in the expression of BTK. Regarding 4 clones, we have noted a decrease of about 50% of the expression of the BTK (see FIG. 3).

The subject of a further data set is HMC-1 cells. Kind of data set: Tumor size in nude mice injected with HMC-1 cells expressing the BTK antisense. The class given is in vivo. To be noted: nude mice injected with 2 millions HMC-1 cells, tumor size assessed few weeks after injection, FIG. 4. From the text:
We used nude mice, which have been injected with 2 millions HMC-1 cells.

The subject of data set [1] is HMC1 cells. Kind of data set: G418-resistant colony formation of HMC1 cells infected with LNCX or LNCX-AS BTK virus. The class given is cell-based. On the procedure:
HMC1 cells seeded the day before in 6 wells plates (10^5 cells/ well) are infected with increasing doses of LNCX or LNCX-AS BTK virus. 24 hours after infection, cells are washed in PBS and cultured in medium containing geneticine (1.2 mg/ml). After one week, we observed the formation of colonies resistant to geneticine and whose number depends on the quantity of virus used for infection. When comparing the number of colonies of HMC1 resisting to G418 obtained from cells infected with the LNCX or LNCX-AS BTK virus, we observed independently of the virus concentration used, a lower number of colonies of cells infected with LNCX-AS BTK relative to the number of colonies of cells infected with LNCX. For equivalent quantity of virus, we obtained between 5 to 10 fold less colonies of HMC resisting to G418 by infecting with the LNCX-AS BTK virus compared to the infection with the LNCX “empty”.
The 10 to 20% surviving clones are those for which the antisense expression level is weak thereby maintaining a BTK expression level compatible with cellular survival.

In data set [2] the test system is HMC1 cells. The data set can be described thus: Determination of HMC1 cells sensibility to G418 (lethal geneticine dose). The data set is classed as cell-based, human. The note with it: 6 wells plate; 0 to 1.4 mg/ml tested; colonies visualized one week after seeding. The protocol:
To determine, the lethal geneticine dose for HMC1, cells were seeded in 6 wells plate (10^5 cells/wells) in presence of increasing concentration of geneticine (0; 0.6; 0.8; 1; 1.2; 1.4 mg/ml). One week after seeding, colonies are visualized by crystal purple coloration. It appears that the effective dose was 1.2 mg/ml geneticine in the culture Media. Indeed, at lower doses, we observed development of HMC1 colonies. • -Infection of HMC1 Cells

Take “5′ AGAATCACTGCGGCCATAGCTTCTTCTTTCTG 3′ (chemistry not given here) [BTK antisense]”: the “decrease of the expression of the BTK” value in the data set on BTK is “about 50%”. For the same compound, the “anti-tumoral effect (size of the tumors)” value in the data set with HMC-1 cells is “significant anti-tumoral effects”; in the data set on HMC-1 cells (listed as antisens oligonucleotide directed against BTK), “significantly decrease the size of tumors”. Moreover, the cellular mortality in the data set on HMC1 cells [1] (HMC1 cells, decrease of BTK expression by the antisense RNA) is 80 to 90%. The surviving clones with HMC1 cells [1] (HMC1 clones with weak antisense expression level) is recorded as 10 to 20%.

Consider `CN[C@@H]1[C@@H](O)[C@@H](O[C@@H]2[C@@H](O)[C@H](O[C@H]3O[C@H]([C@@H](C)O)[C@@H](O)[C@H](O)[C@H]3N)[C@@H](N)C[C@H]2N)OC[C@]1(C)O` [geneticine], for which the “lethal (effective) geneticine dose for HMC1” value in the data set on HMC1 cells [2] was 1.2 mg/mL.
